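Protocol summary: plate cells (96-well), add compound at 5 concentrations, incubate 48 h, interpolate endpoints linearly. GI50 = concentration required for 50% inhibition of growth. TGI is the concentration that stops growth completely.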
Key:
Experiment in all cases: NCI anticancer screen, dose series, 48 h
786-0 renal = tested on: 786-0 renal
A498 renal = tested on: A498 renal
A549 NSCLC = tested on: A549 NSCLC
ACHN renal = tested on: ACHN renal
BT-549 breast = tested on: BT-549 breast
CAKI-1 renal = tested on: CAKI-1 renal
CCRF-CEM leukemia = tested on: CCRF-CEM leukemia
COLO 205 colon = tested on: COLO 205 colon
DU-145 prostate = tested on: DU-145 prostate
EKVX NSCLC = tested on: EKVX NSCLC
HCC-2998 colon = tested on: HCC-2998 colon
HCT-116 colon = tested on: HCT-116 colon
HCT-15 colon = tested on: HCT-15 colon
HL-60(TB) leukemia = tested on: HL-60(TB) leukemia
HOP-62 NSCLC = tested on: HOP-62 NSCLC
HOP-92 NSCLC = tested on: HOP-92 NSCLC
HS 578T breast = tested on: HS 578T breast
HT29 colon = tested on: HT29 colon
IGROV1 ovarian = tested on: IGROV1 ovarian
K-562 leukemia = tested on: K-562 leukemia
KM12 colon = tested on: KM12 colon
LOX IMVI melanoma = tested on: LOX IMVI melanoma
M14 melanoma = tested on: M14 melanoma
MALME-3M melanoma = tested on: MALME-3M melanoma
MCF7 breast = tested on: MCF7 breast
MDA-MB-231 breast = tested on: MDA-MB-231 breast
MDA-MB-435 = tested on: MDA-MB-435
MOLT-4 leukemia = tested on: MOLT-4 leukemia
NCI-H226 lung = tested on: NCI-H226 lung
NCI-H23 lung = tested on: NCI-H23 lung
NCI-H460 lung = tested on: NCI-H460 lung
NCI-H522 lung = tested on: NCI-H522 lung
NCI/ADR-RES ovarian = tested on: NCI/ADR-RES ovarian
OVCAR-3 ovarian = tested on: OVCAR-3 ovarian
OVCAR-4 ovarian = tested on: OVCAR-4 ovarian
OVCAR-5 ovarian = tested on: OVCAR-5 ovarian
OVCAR-8 ovarian = tested on: OVCAR-8 ovarian
PC-3 prostate = tested on: PC-3 prostate
RPMI-8226 leukemia = tested on: RPMI-8226 leukemia
RXF 393 renal = tested on: RXF 393 renal
SF-268 CNS = tested on: SF-268 CNS
SF-295 CNS = tested on: SF-295 CNS
SF-539 CNS = tested on: SF-539 CNS
SK-MEL-2 melanoma = tested on: SK-MEL-2 melanoma
SK-MEL-28 melanoma = tested on: SK-MEL-28 melanoma
SK-MEL-5 melanoma = tested on: SK-MEL-5 melanoma
SK-OV-3 ovarian = tested on: SK-OV-3 ovarian
SN12C renal = tested on: SN12C renal
SNB-19 CNS = tested on: SNB-19 CNS
SNB-75 CNS = tested on: SNB-75 CNS
SR leukemia = tested on: SR leukemia
SW-620 colon = tested on: SW-620 colon
T-47D breast = tested on: T-47D breast
TK-10 renal = tested on: TK-10 renal
U251 CNS = tested on: U251 CNS
UACC-257 melanoma = tested on: UACC-257 melanoma
UACC-62 melanoma = tested on: UACC-62 melanoma
UO-31 renal = tested on: UO-31 renal

O=C1/C(=C/c2cccc(F)c2)CN(C(=O)C(Cl)Cl)C/C1=C\c1cccc(F)c1
GI50 (786-0 renal): 217 nM | TGI (786-0 renal): 536 nM | GI50 (A498 renal): 628 nM | TGI (A498 renal): 2050 nM | GI50 (A549 NSCLC): 655 nM | TGI (A549 NSCLC): 2140 nM | GI50 (ACHN renal): 212 nM | TGI (ACHN renal): 517 nM | GI50 (BT-549 breast): 252 nM | TGI (BT-549 breast): 787 nM | GI50 (CAKI-1 renal): 389 nM | TGI (CAKI-1 renal): 1440 nM | GI50 (CCRF-CEM leukemia): 34.5 nM | TGI (CCRF-CEM leukemia): 17700 nM | GI50 (COLO 205 colon): 332 nM | TGI (COLO 205 colon): 1160 nM | GI50 (DU-145 prostate): 392 nM | TGI (DU-145 prostate): 1360 nM | GI50 (EKVX NSCLC): 263 nM | TGI (EKVX NSCLC): 804 nM | GI50 (HCC-2998 colon): 272 nM | TGI (HCC-2998 colon): 737 nM | GI50 (HCT-116 colon): 63.4 nM | TGI (HCT-116 colon): 239 nM | GI50 (HCT-15 colon): 85.5 nM | TGI (HCT-15 colon): 312 nM | GI50 (HL-60(TB) leukemia): 218 nM | TGI (HL-60(TB) leukemia): 773 nM | GI50 (HOP-62 NSCLC): 353 nM | TGI (HOP-62 NSCLC): 1190 nM | GI50 (HOP-92 NSCLC): 499 nM | TGI (HOP-92 NSCLC): 1440 nM | GI50 (HS 578T breast): 303 nM | TGI (HS 578T breast): 1250 nM | GI50 (HT29 colon): 113 nM | TGI (HT29 colon): 764 nM | GI50 (IGROV1 ovarian): 209 nM | TGI (IGROV1 ovarian): 531 nM | GI50 (K-562 leukemia): 33.2 nM | GI50 (KM12 colon): 172 nM | TGI (KM12 colon): 476 nM | GI50 (LOX IMVI melanoma): 38.5 nM | TGI (LOX IMVI melanoma): 109 nM | GI50 (M14 melanoma): 258 nM | TGI (M14 melanoma): 872 nM | GI50 (MALME-3M melanoma): 218 nM | TGI (MALME-3M melanoma): 621 nM | GI50 (MCF7 breast): 40.5 nM | TGI (MCF7 breast): 241 nM | GI50 (MDA-MB-231 breast): 248 nM | TGI (MDA-MB-231 breast): 671 nM | GI50 (MDA-MB-435): 210 nM | TGI (MDA-MB-435): 491 nM | GI50 (MOLT-4 leukemia): 90.5 nM | TGI (MOLT-4 leukemia): 3600 nM | GI50 (NCI-H226 lung): 259 nM | TGI (NCI-H226 lung): 685 nM | GI50 (NCI-H23 lung): 234 nM | TGI (NCI-H23 lung): 690 nM | GI50 (NCI-H460 lung): 318 nM | TGI (NCI-H460 lung): 1090 nM | GI50 (NCI-H522 lung): 202 nM | TGI (NCI-H522 lung): 522 nM | GI50 (NCI/ADR-RES ovarian): 304 nM | TGI (NCI/ADR-RES ovarian): 1490 nM | GI50 (OVCAR-3 ovarian): 190 nM | TGI (OVCAR-3 ovarian): 410 nM | GI50 (OVCAR-4 ovarian): 351 nM | TGI (OVCAR-4 ovarian): 1380 nM | GI50 (OVCAR-5 ovarian): 290 nM | TGI (OVCAR-5 ovarian): 887 nM | GI50 (OVCAR-8 ovarian): 184 nM | TGI (OVCAR-8 ovarian): 1130 nM | GI50 (PC-3 prostate): 186 nM | TGI (PC-3 prostate): 539 nM | GI50 (RPMI-8226 leukemia): 31.8 nM | TGI (RPMI-8226 leukemia): 169 nM | GI50 (RXF 393 renal): 194 nM | TGI (RXF 393 renal): 397 nM | GI50 (SF-268 CNS): 427 nM | TGI (SF-268 CNS): 1750 nM | GI50 (SF-295 CNS): 217 nM | TGI (SF-295 CNS): 629 nM | GI50 (SF-539 CNS): 265 nM | TGI (SF-539 CNS): 824 nM | GI50 (SK-MEL-2 melanoma): 343 nM | TGI (SK-MEL-2 melanoma): 1270 nM | GI50 (SK-MEL-28 melanoma): 243 nM | TGI (SK-MEL-28 melanoma): 601 nM | GI50 (SK-MEL-5 melanoma): 200 nM | TGI (SK-MEL-5 melanoma): 431 nM | GI50 (SK-OV-3 ovarian): 600 nM | TGI (SK-OV-3 ovarian): 1790 nM | GI50 (SN12C renal): 189 nM | TGI (SN12C renal): 475 nM | GI50 (SNB-19 CNS): 204 nM | TGI (SNB-19 CNS): 604 nM | GI50 (SNB-75 CNS): 392 nM | TGI (SNB-75 CNS): 1730 nM | GI50 (SR leukemia): 29.6 nM | TGI (SR leukemia): 465 nM | GI50 (SW-620 colon): 32.5 nM | TGI (SW-620 colon): 125 nM | GI50 (T-47D breast): 317 nM | TGI (T-47D breast): 1760 nM | GI50 (TK-10 renal): 433 nM | TGI (TK-10 renal): 1450 nM | GI50 (U251 CNS): 116 nM | TGI (U251 CNS): 294 nM | GI50 (UACC-257 melanoma): 606 nM | TGI (UACC-257 melanoma): 1630 nM | GI50 (UACC-62 melanoma): 191 nM | TGI (UACC-62 melanoma): 430 nM | GI50 (UO-31 renal): 176 nM | TGI (UO-31 renal): 387 nM

Reference: PubChem BioAssay (NCI)
